The record followed here is patent US20050245550A1, “Fungicidal mixtures based on the dithianon” (priority 2002, published 2005).

The test system of assay [1] is Alternaria solani. The experiment in a line: Activity against early blight of tomato caused by Alternaria solani. The assay is classed as in vivo. The following applies: individual active compound, 5 days after infection. As for the experimental part:
(§1) The active compounds were prepared separately or jointly as a stock solution comprising 0.25% by weight of active compound in acetone or DMSO. 1% by weight of the emulsifier Uniperol® EL (wetting agent having emulsifying and dispersing action based on ethoxylated alkylphenols) was added to this solution, and the mixture was diluted with water to the desired concentration.
(§2) Evaluation was carried out by determining the infected leaf areas in percent. These percentages are converted into efficacies.
(§3) The efficacy (E) is calculated as follows using Abbot's formula: E=(1−α/β)·100 α corresponds to the fungal infection of the treated plants in % and • β corresponds to the fungal infection of the untreated (control) plants in %
(§4) An efficacy of 0 means that the infection level of the treated plants corresponds to that of the untreated control plants; an efficacy of 100 means that the treated plants were not infected.
(§5) The expected efficacies of the active compound mixtures are determined using Colby's formula [S. R. Colby, Weeds 15, 20-22 (1967)] and compared with the observed efficacies.
(§6) Colby's formula: E=x+y−x·y/100 • E expected efficacy, expressed in % of the untreated control, when using the mixture of the active compounds A and B at the concentrations a and b • x efficacy, expressed in % of the untreated control, when using active compound A at a concentration of a
(§7) y efficacy, expressed in % of the untreated control, when using active compound B at a concentration of b
Leaves of potted plants of the cultivar “Groβe Fleischtomate St. Pierre” were sprayed to runoff point with an aqueous suspension having the concentration of active compounds stated below. The next day, the leaves were infected with an aqueous zoospore suspension of Alternaria solani in 2% biomalt solution having a density of 0.17×10^6 spores/ml. The plants were then placed in a water-vapor-saturated chamber at temperatures of between 20 and 22° C. After 5 days, the infection on the leaves of the untreated, but infected control plants had developed to such an extent that the infection could be determined visually in %.

In assay [2] the test system is Botrytis cinerea. Kind of assay: Activity against gray mold on bell pepper leaves caused by Botrytis cinerea. The assay is classed as in vivo. The conditions noted are these: individual active compound. The protocol: as §1
Bell pepper seedlings of the cultivar “Neusiedler Ideal Elite” were, after 4-5 leaves were well developed, sprayed to runoff point with an aqueous suspension having the concentration of active compound stated below. The next day, the treated plants were inoculated with a spore suspension of Botrytis cinerea which contained 1.7×10^6 spores/ml in a 2% strength aqueous biomalt solution. The test plants were then placed in a climatized chamber at 22-24° C. and high atmospheric humidity. After 5 days, the extent of the fungal infection on the leaves could be determined visually in %.
as §2, §3, §4, §5, §6, §7

Setting [3] is: concentration in the spray liquor 0.25, 5 days after inoculation.
[4] abbreviates: concentration in the spray liquor 1, 5 days after inoculation.
Setting [5] is: concentration in the spray liquor 4, 5 days after inoculation.

Take `N#Cc1sc2c(=O)c3ccccc3c(=O)c=2sc1C#N` [I, dithianon]: the “Efficacy in % of the untreated control” value in assay [1] (0.25 ppm in the spray liquor), in assay [1] (1 ppm in the spray liquor), in assay [1] (4 ppm in the spray liquor), in assay [2] (setting [3]), in assay [2] (setting [4]) and in assay [2] (setting [5]) was 0% in each case. Besides, in assay [2] (concentration in the spray liquor 16, 5 days after inoculation), the “Efficacy in % of the untreated control” value was 0%.
`CC1(C)CCC(Cc2ccc(Cl)cc2)C1(O)Cn1cncn1` (centres unmarked) [II-1, metconazole]: the “Efficacy in % of the untreated control” value in assay [1] (0.25 ppm in the spray liquor) is on record as 2%; in assay [1] (1 ppm in the spray liquor), 63%; in assay [2] (setting [3]), 0%; in assay [2] (setting [4]), 49%.
For the compound `Fc1ccc(C2(Cn3cncn3)OC2c2ccccc2Cl)cc1` (centres unmarked) [II-2, epoxiconazole], the “Efficacy in % of the untreated control” value came to 63% in assay [1] (0.25 ppm in the spray liquor), 75% in assay [1] (1 ppm in the spray liquor), 9% in assay [2] (setting [3]) and 9% in assay [2] (setting [4]).
Turning to `CC(C)(C)C(O)(CCc1ccc(Cl)cc1)Cn1cncn1` (centres unmarked) [II-4, tebuconazole], the “Efficacy in % of the untreated control” value in assay [1] (0.25 ppm in the spray liquor) worked out at 0%; in assay [1] (1 ppm in the spray liquor), 63%; in assay [2] (setting [3]), 0%; in assay [2] (setting [4]), 0%; in assay [2] (setting [5]) it was 0%.
